Results on two compounds are retold here after publication PMC9938908, “Unraveling topoisomerase IA gate dynamics in presence of PPEF and its preclinical evaluation against multidrug-resistant pathogens” (Communications Biology, 2023).

Assay type in all cases: biochemical
Experiment [1] addresses T1, E. coli topoisomerase III (EcTopoIII) (Escherichia coli, UniProt P14294).
T1 construct: gene topB; N-terminal His-tag, pET28a(+), 1962 bp, 73 kDa
The experiment in a line: DNA relaxation assay with pHOT-1 plasmid, agarose gel.

Experiment [2] deals with T2, S. aureus topoisomerase IA (SaTopoIA) (Staphylococcus aureus, UniProt Q5HGI2).
T2 construct: gene topA; N-terminal His-tag, pET28a(+), 2070 bp, 79 kDa
T2 sequence (Q5HGI2 1-689): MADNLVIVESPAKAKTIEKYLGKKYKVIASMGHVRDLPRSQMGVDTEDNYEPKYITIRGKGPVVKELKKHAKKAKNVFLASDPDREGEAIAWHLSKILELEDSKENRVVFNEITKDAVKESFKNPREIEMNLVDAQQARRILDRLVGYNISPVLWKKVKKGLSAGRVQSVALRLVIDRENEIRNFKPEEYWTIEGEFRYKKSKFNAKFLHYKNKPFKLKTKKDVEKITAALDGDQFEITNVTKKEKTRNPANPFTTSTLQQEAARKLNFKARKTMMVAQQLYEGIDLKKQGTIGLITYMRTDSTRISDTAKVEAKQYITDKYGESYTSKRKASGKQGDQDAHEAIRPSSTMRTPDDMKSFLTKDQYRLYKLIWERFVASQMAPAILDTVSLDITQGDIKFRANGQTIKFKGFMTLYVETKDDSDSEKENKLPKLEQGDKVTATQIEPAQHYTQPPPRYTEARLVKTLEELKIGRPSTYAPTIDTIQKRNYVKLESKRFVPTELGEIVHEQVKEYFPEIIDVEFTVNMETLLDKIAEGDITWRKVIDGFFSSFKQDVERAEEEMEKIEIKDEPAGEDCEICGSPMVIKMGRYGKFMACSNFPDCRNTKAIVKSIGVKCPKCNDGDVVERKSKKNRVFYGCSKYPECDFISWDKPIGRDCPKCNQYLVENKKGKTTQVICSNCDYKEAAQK
Description: DNA relaxation assay with pHOT-1 plasmid; also ssDNA religation and plasmid cleavage assays.

For experiment [3], the target named is T3, E. coli topoisomerase IA (EcTopoIA) (Escherichia coli, UniProt P06612).
T3 construct: gene topA; expressed in pET28a(+), purified
T3 sequence (P06612 whole entry): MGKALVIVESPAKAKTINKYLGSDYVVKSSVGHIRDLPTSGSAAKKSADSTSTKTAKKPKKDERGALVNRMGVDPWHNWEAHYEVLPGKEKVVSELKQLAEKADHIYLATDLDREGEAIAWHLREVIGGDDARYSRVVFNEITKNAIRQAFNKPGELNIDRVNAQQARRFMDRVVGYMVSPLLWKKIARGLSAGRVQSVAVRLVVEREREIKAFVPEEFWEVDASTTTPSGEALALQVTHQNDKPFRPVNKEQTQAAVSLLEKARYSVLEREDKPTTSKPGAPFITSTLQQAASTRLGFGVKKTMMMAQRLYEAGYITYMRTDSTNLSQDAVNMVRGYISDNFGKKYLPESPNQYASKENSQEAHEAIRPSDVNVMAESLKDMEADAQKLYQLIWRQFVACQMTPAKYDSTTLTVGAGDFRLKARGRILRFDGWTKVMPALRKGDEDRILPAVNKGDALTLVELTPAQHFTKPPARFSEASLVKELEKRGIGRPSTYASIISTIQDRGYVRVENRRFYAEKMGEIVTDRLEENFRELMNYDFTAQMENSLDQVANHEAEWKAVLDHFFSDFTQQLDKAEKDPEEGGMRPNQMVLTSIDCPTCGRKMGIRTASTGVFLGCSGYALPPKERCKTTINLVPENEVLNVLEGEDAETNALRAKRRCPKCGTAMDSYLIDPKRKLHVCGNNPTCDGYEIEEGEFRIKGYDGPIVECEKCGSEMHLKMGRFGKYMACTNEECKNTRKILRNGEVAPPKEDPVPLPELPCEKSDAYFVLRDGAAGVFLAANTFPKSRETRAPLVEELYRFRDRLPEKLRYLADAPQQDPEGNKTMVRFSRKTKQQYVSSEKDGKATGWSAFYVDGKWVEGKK
The experiment in a line: DNA relaxation assay with pHOT-1 plasmid, agarose gel.

Experiment [4] addresses T4, A. baumannii topoisomerase IA (AbTopoIA) (Acinetobacter baumannii, UniProt A0ABX6CBM5).
T4 construct: gene topA; N-terminal His-tag, pET28a(+), 2637 bp, 98 kDa
T4 sequence (A0ABX6CBM5 1-878): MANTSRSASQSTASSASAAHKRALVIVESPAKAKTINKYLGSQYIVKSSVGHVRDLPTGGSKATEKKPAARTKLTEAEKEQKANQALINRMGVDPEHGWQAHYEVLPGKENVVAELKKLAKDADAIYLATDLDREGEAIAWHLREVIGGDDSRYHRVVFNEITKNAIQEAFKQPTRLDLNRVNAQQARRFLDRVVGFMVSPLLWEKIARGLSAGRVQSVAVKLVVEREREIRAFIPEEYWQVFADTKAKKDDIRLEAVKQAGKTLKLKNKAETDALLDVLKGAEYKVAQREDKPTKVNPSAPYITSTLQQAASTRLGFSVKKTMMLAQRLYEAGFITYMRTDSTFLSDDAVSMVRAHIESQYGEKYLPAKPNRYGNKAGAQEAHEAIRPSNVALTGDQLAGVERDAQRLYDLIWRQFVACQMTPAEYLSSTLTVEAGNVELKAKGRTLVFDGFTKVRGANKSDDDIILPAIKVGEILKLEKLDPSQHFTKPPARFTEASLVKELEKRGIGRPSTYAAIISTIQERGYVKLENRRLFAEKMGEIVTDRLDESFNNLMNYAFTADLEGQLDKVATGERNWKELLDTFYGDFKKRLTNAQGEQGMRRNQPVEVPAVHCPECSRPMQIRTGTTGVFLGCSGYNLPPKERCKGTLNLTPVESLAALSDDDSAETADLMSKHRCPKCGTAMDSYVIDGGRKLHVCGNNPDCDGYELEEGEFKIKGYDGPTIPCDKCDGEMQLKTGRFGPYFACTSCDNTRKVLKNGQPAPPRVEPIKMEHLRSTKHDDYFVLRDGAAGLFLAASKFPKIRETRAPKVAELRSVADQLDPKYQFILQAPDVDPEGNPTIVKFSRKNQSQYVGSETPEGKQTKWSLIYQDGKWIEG
The description is as above.

T1 sequence (P14294 whole entry): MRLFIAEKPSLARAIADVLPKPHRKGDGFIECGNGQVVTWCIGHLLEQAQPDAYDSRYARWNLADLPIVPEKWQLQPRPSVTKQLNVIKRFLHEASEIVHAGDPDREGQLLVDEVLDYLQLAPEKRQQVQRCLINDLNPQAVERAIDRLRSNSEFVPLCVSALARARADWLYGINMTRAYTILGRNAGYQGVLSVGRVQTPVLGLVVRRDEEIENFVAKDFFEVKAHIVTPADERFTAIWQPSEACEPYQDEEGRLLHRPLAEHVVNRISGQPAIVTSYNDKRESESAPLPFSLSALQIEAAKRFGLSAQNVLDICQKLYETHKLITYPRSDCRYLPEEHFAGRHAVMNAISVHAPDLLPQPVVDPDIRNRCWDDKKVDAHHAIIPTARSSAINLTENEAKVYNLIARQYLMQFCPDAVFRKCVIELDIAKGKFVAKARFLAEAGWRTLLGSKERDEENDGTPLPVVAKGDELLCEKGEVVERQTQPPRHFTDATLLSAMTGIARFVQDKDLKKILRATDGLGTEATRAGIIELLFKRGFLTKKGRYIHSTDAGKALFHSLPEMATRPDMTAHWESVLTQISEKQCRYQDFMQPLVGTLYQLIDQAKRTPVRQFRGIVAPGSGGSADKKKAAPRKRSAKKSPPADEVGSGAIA

`CCCCN1CCN(c2ccc3[nH]c(-c4ccc5[nH]c(-c6ccc(OC)c(OC)c6)nc5c4)nc3c2)CC1` [BPVF, 5-(4-butylpiperazin-1-yl)-2′-(3,4-dimethoxyphenyl)-1H,1′H-2,5′ bibenzo[d]imidazole]: the 50% inhibitory concentration (IC50) in experiment [1] was 1.96 µM; in experiment [2], 41.4 µM.

For the compound `CCCN1CCN(c2ccc3nc(-c4ccc5nc(-c6ccc(OCC)cc6)[nH]c5c4)[nH]c3c2)CC1` [PPEF, 2′-(4-ethoxyphenyl)-5-(4-propylpiperazin-1-yl)-1H,1′H-2,5′-bibenzo(d)imidazole], the IC50 in experiment [1] is 1.58 µM; in experiment [2], 15.5 µM; in experiment [3], 2.71 µM; in experiment [4], 9.48 µM.

What is called IC50 is the concentration needed to halve the response being measured. Lower therefore signals inhibition by little substance.
